Assay results from PubChem BioAssay (NCI).
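Following 48 hours of exposure in 96-well plates, responses at five concentrations were used to interpolate endpoints linearly. GI50 = concentration required for 50% inhibition of growth. At the TGI there is no net growth.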

How the values were obtained:
Assay in all cases: NCI anticancer screen, dose series, 48 h
[1] = tested on: 786-0 renal
[2] = tested on: A498 renal
[3] = tested on: A549 NSCLC
[4] = tested on: ACHN renal
[5] = tested on: BT-549 breast
[6] = tested on: CAKI-1 renal
[7] = tested on: CCRF-CEM leukemia
[8] = tested on: COLO 205 colon
[9] = tested on: DU-145 prostate
[10] = tested on: HCC-2998 colon
[11] = tested on: HCT-116 colon
[12] = tested on: HCT-15 colon
[13] = tested on: HL-60(TB) leukemia
[14] = tested on: HOP-62 NSCLC
[15] = tested on: HOP-92 NSCLC
[16] = tested on: HS 578T breast
[17] = tested on: HT29 colon
[18] = tested on: IGROV1 ovarian
[19] = tested on: K-562 leukemia
[20] = tested on: KM12 colon
[21] = tested on: LOX IMVI melanoma
[22] = tested on: M14 melanoma
[23] = tested on: MALME-3M melanoma
[24] = tested on: MCF7 breast
[25] = tested on: MDA-MB-231 breast
[26] = tested on: MDA-MB-435
[27] = tested on: MOLT-4 leukemia
[28] = tested on: NCI-H226 lung
[29] = tested on: NCI-H23 lung
[30] = tested on: NCI-H460 lung
[31] = tested on: NCI-H522 lung
[32] = tested on: NCI/ADR-RES ovarian
[33] = tested on: OVCAR-3 ovarian
[34] = tested on: OVCAR-4 ovarian
[35] = tested on: OVCAR-5 ovarian
[36] = tested on: OVCAR-8 ovarian
[37] = tested on: PC-3 prostate
[38] = tested on: RPMI-8226 leukemia
[39] = tested on: RXF 393 renal
[40] = tested on: SF-268 CNS
[41] = tested on: SF-539 CNS
[42] = tested on: SK-MEL-2 melanoma
[43] = tested on: SK-MEL-28 melanoma
[44] = tested on: SK-MEL-5 melanoma
[45] = tested on: SK-OV-3 ovarian
[46] = tested on: SN12C renal
[47] = tested on: SNB-19 CNS
[48] = tested on: SNB-75 CNS
[49] = tested on: SR leukemia
[50] = tested on: SW-620 colon
[51] = tested on: T-47D breast
[52] = tested on: TK-10 renal
[53] = tested on: UACC-62 melanoma
[54] = tested on: UO-31 renal

SMILES: CCOC(=O)C1=C(N)CCC1C (stereo not drawn)
- GI50 [1]: > 100 µM
- TGI [1]: > 100 µM
- GI50 [2]: > 100 µM
- TGI [2]: > 100 µM
- GI50 [3]: > 100 µM
- TGI [3]: > 100 µM
- GI50 [4]: > 100 µM
- TGI [4]: > 100 µM
- GI50 [5]: > 100 µM
- TGI [5]: > 100 µM
- GI50 [6]: > 100 µM
- TGI [6]: > 100 µM
- GI50 [7]: > 100 µM
- TGI [7]: > 100 µM
- GI50 [8]: > 100 µM
- TGI [8]: > 100 µM
- GI50 [9]: > 100 µM
- TGI [9]: > 100 µM
- GI50 [10]: > 100 µM
- TGI [10]: > 100 µM
- GI50 [11]: > 100 µM
- TGI [11]: > 100 µM
- GI50 [12]: > 100 µM
- TGI [12]: > 100 µM
- GI50 [13]: 69.8 µM
- TGI [13]: > 100 µM
- GI50 [14]: > 100 µM
- TGI [14]: > 100 µM
- GI50 [15]: 41.2 µM
- TGI [15]: > 100 µM
- GI50 [16]: > 100 µM
- TGI [16]: > 100 µM
- GI50 [17]: > 100 µM
- TGI [17]: > 100 µM
- GI50 [18]: > 100 µM
- TGI [18]: > 100 µM
- GI50 [19]: > 100 µM
- TGI [19]: > 100 µM
- GI50 [20]: > 100 µM
- TGI [20]: > 100 µM
- GI50 [21]: > 100 µM
- TGI [21]: > 100 µM
- GI50 [22]: > 100 µM
- TGI [22]: > 100 µM
- GI50 [23]: > 100 µM
- TGI [23]: > 100 µM
- GI50 [24]: > 100 µM
- TGI [24]: > 100 µM
- GI50 [25]: > 100 µM
- TGI [25]: > 100 µM
- GI50 [26]: > 100 µM
- TGI [26]: > 100 µM
- GI50 [27]: 22.7 µM
- TGI [27]: 65.5 µM
- GI50 [28]: > 100 µM
- TGI [28]: > 100 µM
- GI50 [29]: > 100 µM
- TGI [29]: > 100 µM
- GI50 [30]: > 100 µM
- TGI [30]: > 100 µM
- GI50 [31]: > 100 µM
- TGI [31]: > 100 µM
- GI50 [32]: > 100 µM
- TGI [32]: > 100 µM
- GI50 [33]: > 100 µM
- TGI [33]: > 100 µM
- GI50 [34]: > 100 µM
- TGI [34]: > 100 µM
- GI50 [35]: > 100 µM
- TGI [35]: > 100 µM
- GI50 [36]: > 100 µM
- TGI [36]: > 100 µM
- GI50 [37]: > 100 µM
- TGI [37]: > 100 µM
- GI50 [38]: > 100 µM
- TGI [38]: > 100 µM
- GI50 [39]: > 100 µM
- TGI [39]: > 100 µM
- GI50 [40]: > 100 µM
- TGI [40]: > 100 µM
- GI50 [41]: > 100 µM
- TGI [41]: > 100 µM
- GI50 [42]: > 100 µM
- TGI [42]: > 100 µM
- GI50 [43]: > 100 µM
- TGI [43]: > 100 µM
- GI50 [44]: > 100 µM
- TGI [44]: > 100 µM
- GI50 [45]: > 100 µM
- TGI [45]: > 100 µM
- GI50 [46]: > 100 µM
- TGI [46]: > 100 µM
- GI50 [47]: > 100 µM
- TGI [47]: > 100 µM
- GI50 [48]: > 100 µM
- TGI [48]: > 100 µM
- GI50 [49]: 8.35 µM
- TGI [49]: > 100 µM
- GI50 [50]: > 100 µM
- TGI [50]: > 100 µM
- GI50 [51]: > 100 µM
- TGI [51]: > 100 µM
- GI50 [52]: > 100 µM
- TGI [52]: > 100 µM
- GI50 [53]: > 100 µM
- TGI [53]: > 100 µM
- GI50 [54]: > 100 µM
- TGI [54]: > 100 µM
